From patent US6103888A, “Mammalian cationic proteins having lipopolysaccharide binding and anti-coagulant activity” (priority 1999, dated 2000)

How the values were obtained:
RAW 264.7 cells = assay: LPS- or IFNγ-induced reactive nitrogen intermediate (RNI) production, Griess nitrite assay; format: cell-based, murine
Method: From the sequence of the CAP18 cDNA, it was apparent that the putative N-terminal peptide of CAP18 was in fact an internal fragment of the CAP18 protein. We therefore tried to reconfirm the original protein sequence. Neutrophil-derived heparin bound cationic proteins were prepared as described above and applied to a C18 reverse phase HPLC (FIG. 1). We sequenced the major peaks. Peaks at fractions 14.5 and 15.2 correspond to defensins MCP1 and MCP2 (Territo et al. (1989) J. Clin. Invest. 84:2017-2019), respectively. Fraction 25.8 is macrophage related protein 14 (MRP14) (Odink et al. (1987) Nature 330:80-82). The fraction at 20.3 minutes corresponds to a fragment of CAP18 of approximately 4-5 kD. […] The murine macrophage cell line RAW 264.7 (obtained from ATCC) and thioglycollate-elicited murine peritoneal exudate cells are used to produce RNI. Cells are cultured at 1×10^6 /ml. in RPMI-1640 +2.5% FCS in 24 well plates in the presence or absence of different concentrations of LPS or murine rlFNγ. After 24 hr. incubation at 37° C., the cell free supernatant is collected and tested for the presence of RNI. Accumulation of nitrite in the medium is measured by a calorimetric assay based on the Griess reaction (Green et al. (1982) Anal. Biochem. 126:11) using sodium nitrite as standards. Sample (50 μl) is mixed with 50 μl of Griess reagent (1% sulfanilamide, 0.1% naphthalene diamine dihydrochloride, 2.5% H3 PO4) and after 10 min. at room temperature absorbance is read at 570 nm.

factor Xa = molecular target: T1, factor Xa (Homo sapiens, UniProt P00742); assay: Direct Xa inhibition using Xa substrate S2222; format: biochemical; settings: concentrations over 10 μg/ml
T1 construct: purchased Sigma Chemical Co., St. Louis, Mo
Excerpt: Clotting method: Human plasma (Ortho plasma control, Ortho Diagnostic Co.). ATPP reagent(Organo-technika, Tokyo, Japan). Standard tissue factor, rabbit brain thromboplastin (Simplastin, ONO Pharmaceutical, Tokyo, Japan). Purified human factor VII, factor X, factor Xa (Sigma Chemical Co., St. Louis, Mo.). Russell Viper venom (RVV) and Echis Carinatus venom (ECV, Sigma Co.).
Synthetic chromogenic substrate method: Substrate for factor Xa, S2222 (Kabi, Bz-Ile-Glu-Arg-pNA) was used. Substrate for factor II (prothrombin), Boc-Val-Pro-Arg-pNA (Sigma Chemical Co.) was used.

T1 sequence (P00742 235-488 limits assumed): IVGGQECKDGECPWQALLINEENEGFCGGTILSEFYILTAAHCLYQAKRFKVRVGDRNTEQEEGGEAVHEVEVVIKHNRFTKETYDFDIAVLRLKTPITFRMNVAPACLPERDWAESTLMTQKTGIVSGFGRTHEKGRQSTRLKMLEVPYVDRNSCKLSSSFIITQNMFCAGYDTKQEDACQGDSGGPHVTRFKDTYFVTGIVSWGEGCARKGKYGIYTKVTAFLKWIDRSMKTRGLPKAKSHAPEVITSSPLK
T1 sequence (P00742 41-179 limits assumed): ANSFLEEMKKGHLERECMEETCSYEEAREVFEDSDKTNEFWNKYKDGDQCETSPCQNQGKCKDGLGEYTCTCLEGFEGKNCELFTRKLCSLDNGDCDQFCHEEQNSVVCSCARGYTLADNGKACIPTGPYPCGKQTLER

Substance: RNIP: rabbit reactive nitrogen inhibitory protein, amino acids 135-171 of SEQ ID NO:4; purified from granulocytes (Tables 1-3) or synthetic (#197) (GLRKRLRKFRNKIKEKLKKIGQKIQGLLPKLAPRTDY)
- concentrations at which peptides are active in the bioassay (RAW 264.7 cells; day-to-day variation in the bioassay): 10 to 50 nM
- inhibition of LPS-induced RNI production (in words) (RAW 264.7 cells; macrophages / RAW 264.7 cells): active
- direct Xa inhibition (in words) (factor Xa): No evidence of direct Xa inhibition
